Test results taken from ChEMBL document CHEMBL3627713, “Triazole linked mono carbonyl curcumin-isatin bifunctional hybrids as novel anti tubulin agents: Design, synthesis, biological evaluation and molecular modeling studies” (Bioorg Med Chem, 2015).
Activity calls are given as the source filed them. The rule behind the calls is not given here.

Assays:
HeLa = experiment: Cytotoxicity against human HeLa cells assessed as growth inhibition at 50 uM after 48 hrs by sulforhodamine B assay relative to control; assay type: functional; details: read-out: GI
A549 = experiment: Cytotoxicity against human A549 cells assessed as growth inhibition at 50 uM after 48 hrs by sulforhodamine B assay relative to control; assay type: functional; details: A549, 48 h, read-out: GI
PC-3 [1] = experiment: Cytotoxicity against human PC3 cells assessed as growth inhibition at 50 uM after 48 hrs by sulforhodamine B assay relative to control; assay type: functional; details: PC-3, 48 h, read-out: GI
COLO 205 [2] = experiment: Cytotoxicity against human COLO205 cells assessed as growth inhibition at 50 uM after 48 hrs by sulforhodamine B assay relative to control; assay type: functional; details: COLO 205, 48 h, read-out: GI
COLO 205 [3] = experiment: Cytotoxicity against human COLO205 cells assessed as growth inhibition after 48 hrs by sulforhodamine B assay; assay type: functional, cell-based; details: COLO 205, 48 h
HCT-116 [4] = experiment: Cytotoxicity against human HCT116 cells assessed as growth inhibition at 50 uM after 48 hrs by sulforhodamine B assay relative to control; assay type: functional; details: HCT-116, 48 h, read-out: GI
HCT-116 [5] = experiment: Cytotoxicity against human HCT116 cells assessed as growth inhibition after 48 hrs by sulforhodamine B assay; assay type: functional, cell-based; details: HCT-116, 48 h
PC-3 [6] = experiment: Cytotoxicity against human PC3 cells assessed as growth inhibition after 48 hrs by sulforhodamine B assay; assay type: functional, cell-based; details: PC-3, 48 h
THP-1 [7] = experiment: Cytotoxicity against human THP1 cells assessed as growth inhibition after 48 hrs by sulforhodamine B assay; assay type: functional, cell-based; details: THP-1, 48 h
[8] = Cytotoxicity against human MIAPaCa2 cells assessed as growth inhibition at 50 uM after 48 hrs by sulforhodamine B assay relative to control; assay type: functional; details: MIA PaCa-2, 48 h, read-out: GI
CAKI-1 = experiment: Cytotoxicity against human Caki1 cells assessed as growth inhibition at 50 uM after 48 hrs by sulforhodamine B assay relative to control; assay type: functional; details: CAKI-1, 48 h, read-out: GI
THP-1 [9] = experiment: Cytotoxicity against human THP1 cells assessed as growth inhibition at 50 uM after 48 hrs by sulforhodamine B assay relative to control; assay type: functional; details: THP-1, 48 h, read-out: GI
Tubulin = experiment: Inhibition of tubulin (unknown origin) polymerization after 1 hr by ELISA plate reader analysis; assay type: protein-complex assay, Homo sapiens
HCT-116 [10] = experiment: Disruption of microtubule organization in human HCT116 cells at 5 uM after 48 hrs by DAPI staining-based laser scanning confocal microscopic analysis; assay type: cell-based

SMILES	inhibition of growth at 50 µM (HeLa)	inhibition of growth at 50 µM (A549)	inhibition of growth at 50 µM (PC-3 [1])	inhibition of growth at 50 µM (COLO 205 [2])	IC50 (COLO 205 [3])	inhibition of growth at 50 µM (HCT-116 [4])	IC50 (HCT-116 [5])	IC50 (PC-3 [6])	IC50 (THP-1 [7])	inhibition of growth at 50 µM [8]	inhibition of growth at 50 µM (CAKI-1)	inhibition of growth at 50 µM (THP-1 [9])	IC50 (Tubulin)	Activity (HCT-116 [10])
COc1cc(/C=C/C(=O)/C=C/c2cc(OC)c(OC)c(OC)c2)ccc1OCc1cn(CCN2C(=O)C(=O)c3cc(Br)ccc32)nn1	15%	13%	69%	70%	5.29 µM	75%	2.92 µM	6.44 µM	3.14 µM	15%	12%	73%	–	–
COc1ccccc1/C=C/C(=O)/C=C/c1ccc(OCc2cn(CCN3C(=O)C(=O)c4ccccc43)nn2)c(OC)c1	12%	11%	64%	67%	8.16 µM	75%	4.56 µM	8.97 µM	6.34 µM	13%	15%	70%	–	–
COc1ccc(/C=C/C(=O)/C=C/c2ccc(OCc3cn(CCN4C(=O)C(=O)c5ccccc54)nn3)c(OC)c2)cc1OC	18%	19%	79%	80%	5.78 µM	90%	2.67 µM	7.64 µM	4.31 µM	21%	22%	82%	3.97 µM	–
COc1cccc(/C=C/C(=O)/C=C/c2ccc(OCc3cn(CCN4C(=O)C(=O)c5ccccc54)nn3)c(OC)c2)c1	14%	13%	66%	69%	7.34 µM	77%	3.92 µM	9.16 µM	4.41 µM	15%	17%	70%	–	–
COc1cc(/C=C/C(=O)/C=C/c2cccc3ccccc23)ccc1OCc1cn(CCN2C(=O)C(=O)c3cc(Cl)ccc32)nn1	–	–	71%	74%	13.6 µM	78%	9.34 µM	14.1 µM	11.1 µM	–	–	76%	–	–
COc1ccc(/C=C/C(=O)/C=C/c2ccc(OCc3cn(CCN4C(=O)C(=O)c5cc(Cl)ccc54)nn3)c(OC)c2)cc1OC	13%	17%	73%	75%	11.5 µM	79%	6.94 µM	13.7 µM	9.33 µM	12%	10%	77%	–	–
COc1ccc(/C=C/C(=O)/C=C/c2ccc(OCc3cn(CCN4C(=O)C(=O)c5cc(Cl)ccc54)nn3)c(OC)c2)cc1	12%	15%	60%	63%	11 µM	66%	7.81 µM	12.5 µM	9.78 µM	10%	–	64%	–	–
COc1cc(/C=C/C(=O)/C=C/c2ccco2)ccc1OCc1cn(CCN2C(=O)C(=O)c3ccccc32)nn1	–	–	65%	68%	7.53 µM	78%	4.61 µM	8.4 µM	6.56 µM	10%	12%	72%	–	–
COc1cc(/C=C/C(=O)/C=C/c2cc(OC)c(OC)c(OC)c2)ccc1OCc1cn(CCN2C(=O)C(=O)c3ccccc32)nn1	20%	22%	85%	86%	4.15 µM	99%	1.12 µM	5.67 µM	2.87 µM	25%	25%	89%	2.36 µM	Active
COc1cc(/C=C/C(=O)/C=C/c2cccc3ccccc23)ccc1OCc1cn(CCN2C(=O)C(=O)c3ccccc32)nn1	10%	10%	77%	80%	7.99 µM	89%	4.79 µM	8.54 µM	6.15 µM	11%	14%	83%	7.16 µM	–
COc1ccc(/C=C/C(=O)/C=C/c2ccc(OCc3cn(CCN4C(=O)C(=O)c5ccccc54)nn3)c(OC)c2)cc1	15%	15%	70%	72%	6.72 µM	81%	3.45 µM	8.95 µM	4.96 µM	17%	20%	75%	5.41 µM	–
COc1cc(/C=C/C(=O)/C=C/c2cccs2)ccc1OCc1cn(CCN2C(=O)C(=O)c3ccccc32)nn1	–	–	63%	66%	7.72 µM	76%	5.09 µM	8.51 µM	6.83 µM	–	10%	71%	–	–
COc1cc(/C=C/C(=O)/C=C/c2ccccc2)ccc1OCc1cn(CCN2C(=O)C(=O)c3ccccc32)nn1	12%	10%	60%	64%	8.28 µM	71%	5.16 µM	9.56 µM	7.64 µM	20%	15%	66%	–	–
COc1cc(/C=C/C(=O)/C=C/c2cc(OC)c(OC)c(OC)c2)ccc1OCc1cn(CCN2C(=O)C(=O)c3cc(Cl)ccc32)nn1	15%	22%	80%	84%	5.97 µM	89%	2.17 µM	7.14 µM	4.56 µM	13%	13%	86%	–	–
